Data: PubChem BioAssay (NCI)
Values joined by “and” are separate entries in the source; they are usually repeats but may differ in a detail not shown here. Equal values may be shown once.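 In this assay, cells in 96-well plates receive the compound at five concentrations for 48 hours. Endpoints are linearly interpolated between the surrounding concentrations. GI50 = concentration required for 50% inhibition of growth. TGI denotes the concentration required for complete inhibition of growth.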

Assays:
Test in all cases: DTP human tumour cell line panel, 48 h
K-562 leukemia = test system: K-562 leukemia
LOX IMVI melanoma = test system: LOX IMVI melanoma
MALME-3M melanoma = test system: MALME-3M melanoma
MDA-MB-435 = test system: MDA-MB-435
NCI-H460 lung = test system: NCI-H460 lung
RPMI-8226 leukemia = test system: RPMI-8226 leukemia
SK-MEL-5 melanoma = test system: SK-MEL-5 melanoma
SN12C renal = test system: SN12C renal
TK-10 renal = test system: TK-10 renal
UO-31 renal = test system: UO-31 renal

Compound	GI50 (K-562 leukemia)	TGI (K-562 leukemia)	GI50 (LOX IMVI melanoma)	TGI (LOX IMVI melanoma)	GI50 (MALME-3M melanoma)	TGI (MALME-3M melanoma)	GI50 (MDA-MB-435)	TGI (MDA-MB-435)	GI50 (NCI-H460 lung)	TGI (NCI-H460 lung)	GI50 (RPMI-8226 leukemia)	TGI (RPMI-8226 leukemia)	GI50 (SK-MEL-5 melanoma)	TGI (SK-MEL-5 melanoma)	GI50 (SN12C renal)	TGI (SN12C renal)	GI50 (TK-10 renal)	TGI (TK-10 renal)	GI50 (UO-31 renal)	TGI (UO-31 renal)
CCCCC#Cc1c(I)n(C2OC(CO[Si](C)(C)C(C)(C)C)C3OC(C)(C)OC32)c(=O)n(C(=O)c2ccccc2)c1=O (stereo unspecified)	15 µM	36.2 µM	5.54 µM	38.5 µM	2.5 µM	4.91 µM	1.77 µM	3.87 µM	10.9 µM	27.4 µM	3.64 µM	17.4 µM	14.2 µM	27.2 µM	19.3 µM	45.4 µM	1.78 µM	3.19 µM	1.97 µM	7.51 µM
Cc1ccc2oc(=O)c3c(O)c4cccc(OC5OC(C)C6O[C@@H](c7ccccc7)OC6C5OC5OC(C)C(O)C(O)C5O)c4c4oc(=O)c1c2c34 (stereo partly specified)	0.0708 µM	2.6 µM	0.0293 µM and 0.0483 µM	0.538 µM and 1.51 µM	0.126 µM	1.58 µM and 2.52 µM	–	1.9 µM	0.00467 µM	1.03 µM and 0.545 µM	–	0.888 µM	0.114 µM	1.09 µM and 0.7 µM	0.251 µM	1.76 µM and 4.73 µM	0.461 µM	3.81 µM and 8.95 µM	0.4 µM	1.99 µM and 7.47 µM
CC(C)C[C@H](NC(=O)Cn1cccc(CNC(=O)c2ccccc2)c1=O)B(O)O	1.3 µM	> 100 µM	0.244 µM	0.811 µM	0.16 µM	1.88 µM	0.158 µM	0.355 µM	2.65 µM	15.8 µM	0.352 µM	–	0.158 µM	0.842 µM	0.811 µM	11.3 µM	0.55 µM	4.75 µM	4 µM	23 µM
CC(=O)c1c[nH]c2ccc(-c3ccnc(Nc4ccc(NC(=O)C5CCCC5)c(CN5CCOCC5)c4)n3)cc12	0.041 µM	> 100 µM	0.0132 µM	0.0479 µM	0.0431 µM	0.151 µM	0.0286 µM	0.121 µM	0.033 µM	0.125 µM	0.045 µM	0.262 µM	0.0246 µM	0.0685 µM	0.0301 µM	3.97 µM	0.0274 µM	0.406 µM	0.0273 µM	0.108 µM
C=CC1C(CC2OC(CO)C(O)C(O)C2O)OC=C2C(=O)OCCC21O (stereo unspecified)	6.6 µM	> 100 µM	8.37 µM	23.4 µM	17.8 µM	51 µM	13.7 µM	44.5 µM	28.4 µM	> 100 µM	2.32 µM	8.43 µM	15.7 µM	37.5 µM	20.8 µM	75.6 µM	26 µM	90.3 µM	16.4 µM	> 100 µM
Nc1nc(Cl)nc2c1ncn2C1OC(CO)C(O)C1F (stereo unspecified)	0.426 µM	> 100 µM	2.18 µM	> 100 µM	0.195 µM	> 46.2 µM	0.0472 µM	> 100 µM	0.462 µM	> 100 µM	29.8 µM	> 100 µM	0.168 µM	> 8.7 µM	< 0.0439 µM	–	0.55 µM	> 83 µM	0.228 µM	> 26 µM
Nc1c(C(=O)c2cccc(C(O)CO)c2)cnn1-c1ccc(F)cc1 (stereo unspecified)	> 25 µM	> 25 µM	> 25 µM	> 25 µM	> 25 µM	> 25 µM	> 25 µM	> 25 µM	> 25 µM	> 25 µM	> 25 µM	> 25 µM	> 25 µM	> 25 µM	> 25 µM	> 25 µM	> 25 µM	> 25 µM	> 25 µM	> 25 µM
COc1cc(C2c3cc4c(cc3OC(O)C2C)OCO4)cc(OC)c1OC (stereo unspecified)	–	41.1 µM	–	> 100 µM	–	73.2 µM	–	0.156 µM	–	> 51.3 µM	–	2.07 µM	–	9.98 µM	–	> 65 µM	–	> 100 µM	–	40.7 µM
CN1CCN(C(=O)c2ccc(NC(=O)Nc3ccc(-c4nc(N5CCOCC5)c5cccn5n4)cc3)cc2)CC1	0.0963 µM	14.7 µM	0.0206 µM	1.74 µM	0.0295 µM	0.194 µM	0.032 µM	0.41 µM	0.0498 µM	12 µM	0.287 µM	2.02 µM	0.0803 µM	0.394 µM	0.0331 µM	11.8 µM	0.18 µM	0.874 µM	0.304 µM	5.82 µM
COC(=O)CC1(O)C=CC(=O)C=C1	–	> 100 µM	–	6.76 µM	–	6.9 µM	–	21.8 µM	–	5.02 µM	–	31.4 µM	–	10.3 µM	–	37.6 µM	–	16 µM	–	9.93 µM
Cc1ccc(S(=O)(=O)n2cc([C@@]3(O)C[C@H](CSC#N)OC3=O)c3ccccc32)cc1	6.2 µM	23.6 µM	8.83 µM	66.4 µM	12.1 µM	35.2 µM	6.78 µM	24.6 µM	9.19 µM	23.9 µM	2.75 µM	40.1 µM	2.44 µM	19.8 µM	7.97 µM	24.9 µM	16.3 µM	37.8 µM	4.62 µM	19.3 µM
Cc1c(Nc2nccc3cc(CN4CC[C@@H](O)C4)cnc23)cccc1-c1cccc(-c2nc3cc(CN4CC[C@@H](C(=O)O)C4)cc(C#N)c3o2)c1C	1.44 µM	> 100 µM	1.97 µM	4.27 µM	4.35 µM	23.2 µM	15.3 µM	35.1 µM	7.15 µM	21.8 µM	2.26 µM	26.5 µM	10.2 µM	22.7 µM	20.1 µM	> 100 µM	20.5 µM	> 100 µM	4.7 µM	> 100 µM
FC(F)c1ncc(-c2ccc(C(F)(F)F)cc2)c(NC2CCCCCC2)n1	> 10 µM	> 10 µM	> 10 µM	> 10 µM	> 10 µM	> 10 µM	> 10 µM	> 10 µM	> 10 µM	> 10 µM	> 10 µM	> 10 µM	> 10 µM	> 10 µM	> 10 µM	> 10 µM	> 10 µM	> 10 µM	> 10 µM	> 10 µM
OCCCCC#Cc1ccccc1C#Cc1cccnc1	23.9 µM	71.1 µM	29.6 µM	> 100 µM	37.8 µM	92.2 µM	32.2 µM	> 100 µM	31.6 µM	> 100 µM	35.5 µM	> 100 µM	54.8 µM	> 100 µM	26.9 µM	82.6 µM	26.9 µM	80.6 µM	25.2 µM	90.4 µM
CCN1CCN(c2cc(C(=O)Nc3cccc(Nc4ccc5c(OC)cccc5n4)c3)cc(C(F)(F)F)c2)CC1	0.91 µM	2.77 µM	0.781 µM	1.96 µM	0.611 µM	1.33 µM	1.16 µM	4.93 µM	1.34 µM	5.32 µM	1.2 µM	5.32 µM	1.55 µM	5.54 µM	1.4 µM	5.57 µM	3.47 µM	8.02 µM	0.746 µM	3.88 µM
COC1=C(OC)C(=O)C(C/C=C(\C)CC/C=C(\C)CC/C=C(\C)CC/C=C(\C)CC/C=C(\C)CC/C=C(\C)CC/C=C(\C)CC/C=C(\C)CC/C=C(\C)CCC=C(C)C)=C(C)C1=O	> 100 µM	> 100 µM	> 100 µM	> 100 µM	> 100 µM	> 100 µM	> 100 µM	> 100 µM	> 100 µM	> 100 µM	> 100 µM	> 100 µM	> 100 µM	> 100 µM	> 100 µM	> 100 µM	> 100 µM	> 100 µM	> 100 µM	> 100 µM
N#C/C(=C/N1CCN(C(=O)c2ccco2)C1=S)C(=O)Nc1ccc(Cl)cc1	16.1 µM	> 50 µM	16.7 µM	> 50 µM	21.4 µM	> 50 µM	15.2 µM	> 50 µM	19.9 µM	> 50 µM	10.5 µM	32.2 µM	11.2 µM	24.7 µM	11.8 µM	37.2 µM	19.4 µM	> 50 µM	12 µM	26.6 µM
Fc1ccc2c(c1)C1=C(CCC2)C(c2ccc(Cl)cc2)NC(=S)N1 (stereo unspecified)	32.4 µM	> 100 µM	36 µM	> 100 µM	22.6 µM	80.2 µM	40.9 µM	> 100 µM	32.7 µM	> 100 µM	13.1 µM	53.8 µM	28.4 µM	> 100 µM	60.8 µM	89.2 µM	12.6 µM	80.3 µM	16.9 µM	> 100 µM
